Results on one substance are retold here after paper PMC9475553, “SHF Acts as a Novel Tumor Suppressor in Glioblastoma Multiforme by Disrupting STAT3 Dimerization” (Advanced Science, 2022).

In one assay the test system is global DNA methylation. In words: Global DNA methylation (5-mC ELISA) assay in U87 cells. The format is cell-based, human. The following applies: U87 cells treated with C16; n = 3, p < 0.01. As for the experimental part:
(§1) Figure 7 Peptide derived from the STAT3‐binding sites of SHF is an effective GBM suppressive strategy. A) Binding model between SHF and STAT3 using ZDOCK server. […] B) IF staining determined the cell penetrability and nuclear‐localization of C16. U251 cells were incubated with C16 or SC for 2 h and performed IF staining using the indicated antibodies. Bars, 10 µm. C) The statical analysis of adsorption equilibrium assay detecting the binding of C16 and SC with recombinant STAT3. D) Pull‐down assay indicating C16 binds STAT3. GST‐STAT3 was incubated with C16 or SC for 2 h, and the pull‐down assay was performed using Anti‐His magnetic beads. E) IP assay showing the effect of C16 on STAT3 dimerization. […] The relative quantification of STAT3 dimerization was listed. […] The relative quantification of STAT3/DNMT1 interaction was listed. […] The relative quantification of STAT3/DNMT1 interaction was listed. […] Positive cells were quantified 20 randomly selected fields per mouse (n = 6, Student's t‐test, **p < 0.01). […]
Global DNA methylation status was quantified by the MethylFlash Global DNA Methylation (5‐mC) ELISA Easy Kit (Epigentek, Brooklyn, NY). Levels of 5‐methylcytosine (5‐mC) were calculated according to the manufacturer's instructions. In brief, the purified and quantified genomic DNA were bound to strip‐wells treated for high DNA affinity. […]
(In an ELISA, binding on a coated surface is turned into a signal by an enzyme label.)

For a further assay, the system named is U87 cells. In words: Cell growth assay (CCK-8), U87. The format is cell-based, human. The following applies: n=6. As for the experimental part: (§2) Cell growth was quantified using the Cell Counting Kit‐8 Assay Kit (Bimake, Houston, TX). Each experiment was repeated at least six times. For the colony formation assay, 800 cells were seeded into each well of a six‐well plate with soft agar (Agarose; Sigma, St. Louis, MO) and maintained in a medium containing 10% FBS for 14 days. The colonies were fixed with methanol and stained with 0.1% crystal violet; the clones containing at least 50 cells were counted using an inverted microscope.
(§3) Supplementary Fig. 9 C16 inhibits tumor growth and promotes chemosensitivity in vitro.
(§4) B. Colony formation of cells treated with SC or C16 (left) and the accompanying statistical
(§5) analysis (right; n=6, Student’s t-test, **P < 0.01).
(§6) C. Annexin V staining flow cytometry assay of cells simultaneously treated with Dox with SC or
(§7) C16 for 48 h (n=3, Student’s t-test, *P < 0.05, **P < 0.01).
(§8) (1 picture or pasted object on this page, not shown here)

A further assay concerns GBM cells. As to the kind of experiment: Colony formation assay. The format is cell-based, human. The following applies: C16 vs SC; 25 uM stated adequate for subsequent experiments; n=6, P < 0.01. As for the experimental part: as §2, §3, §4, §5, §6, §7, §8
The test system of another assay is STAT3 targeted genes. As to the kind of experiment: qRT-PCR of STAT3 targeted genes in derived xenografts. It counts as in vivo, mouse. The following applies: 10 µg i.p. once every 2 days, n = 6, p < 0.01. As for the experimental part: as §1
Total RNA was extracted using TRIzol reagent (Invitrogen) according to the manufacturer's instructions. cDNA was synthesized with the M‐MLV Reverse Transcriptase Kit (Cwbio, Beijing, China). PCR analyses were conducted to quantify mRNA expression using Real SYBR Mixture (Cwbio) on a Lightcycler 480 II instrument (Roche Applied Science). […]
Background: Quantitative PCR measures a nucleic acid by following its amplification.

Turning to “C16: peptide spanning SHF amino acids 388–421, palmitic acid at the N-terminus, amidated C-terminus, 3× His tags added to the C-terminal (PFSSVPEIVHHYASRKLPIKGAEHMSLLYPVAIR; palmitic acid at the N-terminus; amidated C-terminus; left off: 3× His tags, C-terminal, kept)”, in the assay on global DNA methylation, the “global DNA methylation” value is recorded as “significant decrease”. Besides, in the assay with U87 cells, the cell growth inhibition result is “inhibited cell growth with concentration dependence”. Besides, in the assay with GBM cells, the colony growth result is “effectively impaired colony growth”. For the same substance, in the assay on STAT3 targeted genes, the “STAT3 targeted gene expression in derived xenografts” value is on record as “significantly down‐regulated”.
